Results published in paper PMC8543028 (Infection and Drug Resistance, 2021).

Test system: M. tuberculosis-209
Type: cell-based, Mycobacterium tuberculosis

O=[N+]([O-])c1ccc(/C(O)=C/C(=S)S)cc1 [Compound 11e, (Z)-3-hydroxy-3-(4-nitrophenyl)-prop-2-enedithioic acid]
MIC100 in Mtb-209: active
